According to patent EP2033962A1, “Tetracyclic indolopyridines as EG5 inhibitors” (4SC AG, priority 2007, dated 2009):

Test system: RKO p27 uninduced (proliferating)
Assay: Alamar Blue cell viability assay, anti-proliferative / cytotoxic activity on proliferating cells
Format: cell-based
Conditions: Homo sapiens, RKOp27; RKO colon cancer cells, absence of the inducer Ponasterone A, 72 hours incubation; read-out: -log EC50 [mol/l] RKO p27 uninduced (proliferating) (converted)
Experimental: The anti-proliferative / cytotoxic activity of the compounds described herein can be tested on subclones of RKO human colon adenocarcinoma cells (Schmidt et al., Oncogene 19, 2423-2429; 2000) using the Alamar Blue cell viability assay (described in O'Brien et al. Eur J Biochem 267, 5421-5426, 2000). The compounds are dissolved as 10 mM solutions in DMSO and subsequently diluted in semi-logarithmic steps. DMSO dilutions are further diluted 1:100 v:v into Dulbecco's modified Eagle's medium (DMEM) containing 10% fetal calf serum to a final concentration twice as much as the final concentration in the test. RKO subclones are seeded into 96 well flat bottom plates at a density of 4000 cells per well in a volume of 50 µl per well. 24 hours after seeding the 50 µl each of the compound dilutions in DMEM medium are added into each well of the 96 well plate. Each compound dilution is tested as triplicates. Wells containing untreated control cells are filled with 50 µl DMEM medium containing 1% DMSO. The cells are then incubated with the substances for 72 hours at 37°C in a humidified atmosphere containing 5% carbon dioxide. To determine the viability of the cells, 10 µl of an Alamar Blue solution (Biosource) are added and the fluorescence is measured at an extinction of 544 nm and an emission of 590 nm. For the calculation of the cell viability the emission value from untreated cells is set as 100% viability and the emission rates of treated cells are set in relation to the values of untreated cells. Viabilities are expressed as % values. The Graphpad Prism program is used for the calculation of EC50 values for anti-proliferative / cytotoxic activity out of the obtained dose-response curves.
To determine the cell cycle specific mode of action, subclones of RKO colon adenocarcinoma cells (RKOp21 or RKOp27 as described by Schmidt et al. in Oncogene 19, 2423-2429; 2000) are seeded into 96 well flat bottom plates at a density of 16000 cells per well in a volume of 50 µl per well in DMEM growth medium with 10% FCS containing 10 µM Ponasterone A. 24 hours after seeding the 50 µl each of the compound dilutions in DMEM medium are added into each well of the 96-well plate. Each compound dilution is tested as triplicates. Wells containing untreated control cells are filled with 50 µl DMEM medium containing 1% DMSO. The cells are then incubated with the substances for 72 hours at 37°C in a humidified atmosphere containing 5% carbon dioxide. To determine the viability of the cells, 10 µl of an Alamar Blue solution (Biosource) are added and the fluorescence is measured at an extinction of 544 nm and an emission of 590 nm. For the calculation of the cell viability the emission value from untreated cells is set as 100% viability and the emission rates of treated cells are set in relation to the values of untreated cells. Viabilities are expressed as % values. The Graphpad Prism program (GraphPad Software, Inc) is used for the calculation of EC50 values out of the obtained dose-response curves. Viability is compared of proliferating cells grown in the absence of the inducer Ponasterone A, versus viability of cells arrested by the expression of ectopic p27Kip1 induced by Ponasterone A.

`O=C1[C@@H]2Cc3c([nH]c4ccccc34)[C@@H](c3cccc(O)c3)N2C(=O)CN1CCN1CCCC1` (racemic) [Example 6, (6RS,12aSR)-6-(3-Hydroxy-phenyl)-2-(2-pyrrolidin-1-yl-ethyl)-2,3,6,7,12,12a-hexahydro-pyrazino[1',2':1,6]pyrido[3,4-b]indole-1,4-dione] and `O=C1[C@@H]2Cc3c([nH]c4ccccc34)[C@@H](c3cccc(O)c3)N2C(=O)CN1CCN1CCCCC1` (racemic) [Example 7, (6RS,12aSR)-6-(3-Hydroxy-phenyl)-2-(2-piperidin-1-yl-ethyl)-2,3,6,7,12,12a-hexahydro-pyrazino[1',2':1,6]pyrido[3,4-b]indole-1,4-dione] fall in the same range of EC50: 0.1 to 1 µM for the first, 0.1 to 1 µM for the second.

`COc1ccc2[nH]c3c(c2c1)C[C@@]1(C)C(=O)N(CCN(C)C)CC(=O)N1[C@@H]3c1cccc(O)c1` (racemic) [Example 8, (6RS,12aSR)-2-(2-Dimethylamino-ethyl)-6-(3-hydroxy-phenyl)-10-methoxy-12a-methyl-2,3,6,7,12,12a-hexahydro-pyrazino[1',2':1,6]pyrido[3,4-b]indole-1,4-dione] and `COc1ccc2[nH]c3c(c2c1)C[C@@]1(C)C(=O)N(CCCN(C)C)CC(=O)N1[C@@H]3c1cccc(O)c1` (racemic) [Example 12, (6RS,12aSR)-2-(3-Dimethylamino-n-propyl)-6-(3-hydroxy-phenyl)-10-methoxy-12a-methyl-2,3,6,7,12,12a-hexahydro-pyrazino[1',2':1,6]pyrido[3,4-b]indole-1,4-dione] cannot be ordered by EC50: no more than 0.1 µM for the first, no more than 0.1 µM for the second.

`COc1ccc2[nH]c3c(c2c1)C[C@@]1(C)C(=O)N(CCN2CCCC2)CC(=O)N1[C@@H]3c1cccc(O)c1` (racemic) [Example 9, (6RS,12aSR)-6-(3-Hydroxy-phenyl)-10-methoxy-12a-methyl-2-(2-pyrrolidin-1-yl-ethyl)-2,3,6,7,12,12a-hexahydro-pyrazino[1',2':1,6]pyrido[3,4-b]indole-1,4-dione] and `COc1ccc2[nH]c3c(c2c1)C[C@@]1(C)C(=O)N(CCN2CCCCC2)CC(=O)N1[C@@H]3c1cccc(O)c1` (racemic) [Example 11, (6RS,12aSR)-6-(3-Hydroxy-phenyl)-10-methoxy-12a-methyl-2-(2-piperidin-1-yl-ethyl)-2,3,6,7,12,12a-hexahydro-pyrazino[1',2':1,6]pyrido[3,4-b]indole-1,4-dione] cannot be ordered by EC50: no more than 0.1 µM for the first, no more than 0.1 µM for the second.

`COc1ccc2[nH]c3c(c2c1)C[C@@]1(C)C(=O)N(C)CC(=O)N1[C@@H]3c1cccc(O)c1` (racemic) [Example 10, (6RS,12aSR)-6-(3-Hydroxy-phenyl)-10-methoxy-2,12a-dimethyl-2,3,6,7,12,12a-hexahydro-pyrazino[1',2':1,6]pyrido[3,4-b]indole-1,4-dione] and `COc1ccc2[nH]c3c(c2c1)C[C@@]1(C)C(=O)N(CCNC(C)C)CC(=O)N1[C@@H]3c1cccc(O)c1` (racemic) [Example 25, (6RS,12aSR)-6-(3-Hydroxy-phenyl)-2-(2-isopropylamino-ethyl)-10-methoxy-12a-methyl-2,3,6,7,12,12a-hexahydro-pyrazino[1',2':1,6]pyrido[3,4-b]indole-1,4-dione] cannot be ordered by EC50: 0.1 to 1 µM for the first, no more than 0.1 µM for the second.

`COc1ccc2[nH]c3c(c2c1)C[C@@]1(C)C(=O)N(CCN2CCOCC2)CC(=O)N1[C@@H]3c1cccc(O)c1` (racemic) [Example 13, (6RS,12aSR)-6-(3-Hydroxy-phenyl)-10-methoxy-12a-methyl-2-(2-morpholin-4-yl-ethyl)-2,3,6,7,12,12a-hexahydro-pyrazino[1',2':1,6]pyrido[3,4-b]indole-1,4-dione] and `COc1ccc2[nH]c3c(c2c1)C[C@@]1(C)C(=O)N(CCCN2CCOCC2)CC(=O)N1[C@@H]3c1cccc(O)c1` (racemic) [Example 14, (6RS,12aSR)-6-(3-Hydroxy-phenyl)-10-methoxy-12a-methyl-2-(3-morpholin-4-yl-n-propyl)-2,3,6,7,12,12a-hexahydro-pyrazino[1',2':1,6]pyrido[3,4-b]indole-1,4-dione] fall in the same range of EC50: 0.1 to 1 µM for the first, 0.1 to 1 µM for the second.

`CCN(CC)CCN1CC(=O)N2[C@H](c3cccc(O)c3)c3[nH]c4ccc(OC)cc4c3C[C@@]2(C)C1=O` (racemic) [Example 15, (6RS,12aSR)-2-(2-Diethylamino-ethyl)-6-(3-hydroxy-phenyl)-10-methoxy-12a-methyl-2,3,6,7,12,12a-hexahydro-pyrazino[1',2':1,6]pyrido[3,4-b]indole-1,4-dione] and `CCN(CC)CCCN1CC(=O)N2[C@H](c3cccc(O)c3)c3[nH]c4ccc(OC)cc4c3C[C@@]2(C)C1=O` (racemic) [Example 16, (6RS,12aSR)-2-(3-Diethylamino-n-propyl)-6-(3-hydroxy-phenyl)-10-methoxy-12a-methyl-2,3,6,7,12,12a-hexahydro-pyrazino[1',2':1,6]pyrido[3,4-b]indole-1,4-dione] cannot be ordered by EC50: 0.1 to 1 µM for the first, no more than 0.1 µM for the second.

`COc1ccc2[nH]c3c(c2c1)C[C@@]1(C)C(=O)N(CCN(C(C)C)C(C)C)CC(=O)N1[C@@H]3c1cccc(O)c1` (racemic) [Example 19, (6RS,12aSR)-2-(2-Diisopropylamino-ethyl)-6-(3-hydroxy-phenyl)-10-methoxy-12a-methyl-2,3,6,7,12,12a-hexahydro-pyrazino[1',2':1,6]pyrido[3,4-b]indole-1,4-dione] and `COc1ccc2[nH]c3c(c2c1)C[C@@]1(C)C(=O)N(CCCN2CCCC2)CC(=O)N1[C@@H]3c1cccc(O)c1` (racemic) [Example 28, (6RS,12aSR)-6-(3-Hydroxy-phenyl)-10-methoxy-12a-methyl-2-(3-pyrrolidin-1-yl-n-propyl)-2,3,6,7,12,12a-hexahydro-pyrazino[1',2':1,6]pyrido[3,4-b]indole-1,4-dione] cannot be ordered by EC50: no more than 0.1 µM for the first, 0.1 to 1 µM for the second.

`COc1ccc2[nH]c3c(c2c1)C[C@@]1(C)C(=O)N(CCCN2CCCCC2)CC(=O)N1[C@@H]3c1cccc(O)c1` (racemic) [Example 27, (6RS,12aSR)-6-(3-Hydroxy-phenyl)-10-methoxy-12a-methyl-2-(3-piperidin-1-yl-n-propyl)-2,3,6,7,12,12a-hexahydro-pyrazino[1',2':1,6]pyrido[3,4-b]indole-1,4-dione] gave an EC50 of 0.1 to 1 µM.
